The test system of series [1] is cancer cells PC-3 (prostate carcinoma). Put plainly: Mitochondria membranes of PC-3 cancer cells after incubation with preparation. The note with it: PC-3 cells, diluted to 10^−5 mmol/l, 72 hours at 37° C. It is filed as cell-based. Here is the method:
A control group was also formed consisting of the same number of vials with the same components except cancer cells, and instead, fibroblasts were put in the group vials. After thermostatting for 72 hours at 37° C. the contents of the above vials was analyzed.

The conditions of series [2]: water and alcohol; from Mashkovskiy, Medications; cited from earlier work.

Regarding `COc1cccc2c1C(=O)c1c(O)c3c(c(O)c1C2=O)C[C@@](O)(C(=O)CO)C[C@@H]3O[C@H]1C[C@H](N)[C@H](O)[C@H](C)O1` [adriamycin], the “state of mitochondria membranes” value in series [1] is reported as “membrane swelling”. Consider `O=c1[nH]cc(F)c(=O)[nH]1` [fluororacil], for which the solubility entry in series [2] was “poorly soluble in water and alcohol”.

Source of the values: patent US8436195B2 (priority 2006, dated 2013).
